In order of falling logP:
1. CCCCCCCCNC(=O)N1C(=O)N(C)CC1O (stereo unspecified)  3.46
2. CC1CCC(NC(=O)N2C(=O)N(C)CC2O)CC1 (stereo unspecified)  2.41
3. CCCCCCNC(=O)N1C(=O)N(C)CC1O (stereo unspecified)  2.39
4. CN1CC(O)N(C(=O)NC2CCCCCC2)C1=O (stereo unspecified)  2.29
5. CC1CCCCC1NC(=O)N1C(=O)N(C)CC1O (stereo unspecified)  2.2
6. CN1CC(O)N(C(=O)NC2CCCCC2)C1=O (stereo unspecified)  1.87
7. CCCCCNC(=O)N1C(=O)N(C)CC1O (stereo unspecified)  1.75
8. CN1CC(O)N(C(=O)NC2CCCC2)C1=O (stereo unspecified)  1.47
9. CN1CC(O)N(C(=O)Nc2ccccc2)C1=O (stereo unspecified)  1.44
10. CCCCNC(=O)N1C(=O)N(C)CC1O (stereo unspecified)  1.38
11. CN1CC(O)N(C(=O)NC(C)(C)C)C1=O (stereo unspecified)  1.38
12. CC(C)CNC(=O)N1C(=O)N(C)CC1O (stereo unspecified)  1.32
13. CCC(C)NC(=O)N1C(=O)N(C)CC1O (stereo unspecified)  1.28
14. CCCNC(=O)N1C(=O)N(C)CC1O (stereo unspecified)  0.99
15. CC(C)NC(=O)N1C(=O)N(C)CC1O (stereo unspecified)  0.96
16. CN1CC(O)N(C(=O)NCCCl)C1=O (stereo unspecified)  0.71

From the SangsterLogP compilation
